Test results reported in PMC11167311, “Revolutionizing GPCR–ligand predictions: DeepGPCR with experimental validation for high-precision drug discovery” (Briefings in Bioinformatics, 2024).
Read-outs that look alike come from different tables or passages of the source.

What was measured:
[1] = biological target: T1, hGPR35 (Homo sapiens, UniProt Q9HC97); assay: DMR antagonism (desensitization) assay in CHO-GPR35 cells, zaprinast challenge; assay type: cell-based; details: for GPR35 receptor activity (result in words): CHO-GPR35 cells, desensitization when stimulated by agonist zaprinast
T1 construct: expressed in transfected cells
Procedure: (§1) CHO-GPR35 cells were the same as our previously reported. CHO-GPR35 cells were cultured in an F12 medium supplemented with 10% FBS, penicillin (50 μg/ml), streptomycin (100 μg/ml) and zeocin (200 μg/ml) at 37°C under 5% CO2. HEK293 cells were purchased from the National Collection of Authenticated Cell Cultures (Shanghai, China) and cultured in DMEM medium supplemented with 10% FBS, penicillin (50 μg/ml) and streptomycin (100 μg/ml) and at 37°C under 5% CO2.
(§2) When the cells approached 90% confluence, they were seeded in 384-well biosensor plates with a density of 1.5 × 10^4 CHO-GPR35 or 2.5 × 10^4 HEK293-GLP-1R cells/well and cultured for 24 h. The culture medium in the 384-well biosensor plates was replaced with 30 μl of Hank’s balanced salt solution (1 × HBSS) and then further incubated inside the system for 1 h before measurement. For the dynamic mass redistribution (DMR) agonism assay, a 2-min baseline was first established, followed by adding compounds using the multi-channel pipette, and the compound-triggered DMR responses were recorded for approximately 1 h. […] For DMR antagonism assay, cells were initially treated with either an antagonist or compound for 1 h in GPR35 and 90 min in GLP-1R assays, respectively. […] All DMR responses were background-corrected.

[2] = biological target: T1, hGPR35; assay: DMR agonism assay in CHO-GPR35 cells; assay type: cell-based
Procedure: as §1, §2

T1 sequence (Q9HC97 whole entry): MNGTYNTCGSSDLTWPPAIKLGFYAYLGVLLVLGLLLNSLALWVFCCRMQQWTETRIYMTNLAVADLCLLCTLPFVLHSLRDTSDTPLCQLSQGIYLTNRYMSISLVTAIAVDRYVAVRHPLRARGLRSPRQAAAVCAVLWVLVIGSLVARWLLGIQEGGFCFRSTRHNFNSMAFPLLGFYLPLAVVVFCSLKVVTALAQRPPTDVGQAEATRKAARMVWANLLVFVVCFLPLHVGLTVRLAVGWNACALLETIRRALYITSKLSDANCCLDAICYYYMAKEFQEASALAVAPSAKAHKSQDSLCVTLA

Question: What does the source list for `COCC12CCN(c3ccc(C#N)c(C(F)(F)F)c3)CC1CN(C(=O)CCc1ccccc1)C2` (stereo not drawn) [S948-0241]?
Answer: IC50 [1]: 67.9 µM; GPR35 receptor activity (result in words) [1]: GPR35 receptor antagonistic activity, with relatively weak activity; compound-triggered DMR signal in CHO-GPR35 cells [2]: do not show a significant increase in DMR signal

Question: With `CC(C)NC(=O)c1cccc(-c2noc(CCc3c[nH]c4ccccc34)n2)c1` [F545-1970] as the compound, how does the “GPR35 receptor activity (result in words)” value [1] read?
Answer: GPR35 receptor antagonistic activity, with relatively weak activity

Question: And the IC50 ([1]; read-out: IC50 (hGPR35, DMR desensitization))?
Answer: 38.8 µM

Question: And the “compound-triggered DMR signal in CHO-GPR35 cells” value [2]?
Answer: do not show a significant increase in DMR signal
